Assay results as given in patent US4925853A, “Benzimidazoles as 5-lipoxygenase inhibitors” (Beecham Group PLC, priority 1984, dated 1990).
Where a name gives a salt, the structure may show the parent alone.

Legend:
SRS-A release = experiment: Rat passive peritoneal anaphylaxis (PPA), SRS-A release (Method D); format: in vivo; details: final concentration of 2×10^-4 M, intraperitoneal
From the text: Rat passive peritoneal anaphylaxis (PPA) The method is essentially similar to that described previously by Ross et al (Ross, Janet W., Smith, H. and Spicer, Barbara A. Increased vascular permeability during passive peritoneal anaphylaxis in the rat. Int. Arch. Allergy appl. Innum. 51, 226, 1976.) Charles River Sprague Dawley male rats of 225-275 g and Dunkin Hartley male white guinea pigs of 300-700 g were used. Charles River Sprague Dawley male rats of 225-275 g were given intraperitoneal injections of 0.5 ml of either Bordetella pertussis vaccine (4×10^10 organisms/ml; Burroughs Wellcome, London) or Pertussis vaccine absorbed (not less than 41.u. B. pertussis antigen with aluminium hydroxide; The Lister Institute Elstree, England), and subcutaneous injections of 0.5 ml of an emulsion of 100 mg of ovalbumin (chicken egg albumin; crystallised and lyophilised, grade V, Sigma, London) in 2 ml of isotonic saline and 3 ml of incomplete Freund's adjuvant. The rats were bled by cardiac puncture, under ether anaesthesia,on day 18, the blood was pooled and the serum separated, stored at -20° C. and thawed only once before use. The serum produced 72 hour passive cutaneous anaphylaxis activity in recipient rats to a dilution of 1:64 which was decreased to a dilution of less than 1:2 by heating at 56° C. for 4 hours. Rats were given intraperitoneal injections of 2 ml of a 1:5 dilution of the rat anti-serum in isotonic saline. Two hours later 0.3 ml of 5% solution of Pontamine Sky Blue (Raymond A. Lamb, London) in isotonic saline was injected intraveneously, followed by an intraperitoneal injection of the test compound in 1 ml of saline; (control rats received 1 ml of saline); followed 2.5 minutes later by an intraperitoneal injection of 5 ml of a Tyrode solution containing 50 μg/ml heparin and 0.4 mg/ml of ovalbumin. The concentrations of the compounds were quoted as that in the 6 ml of fluid injected intraperitoneally. […]

[1] = test system: carrageenin-induced pleurisy in the rat; experiment: Carrageenin-induced pleurisy in the rat (Method C); format: in vivo; details: 1 hour before and 24 and 48 hours after carrageenin
Procedure: CARRAGEENIN-INDUCED PLEURISY IN THE RAT This model of monocyte accumulation is based on the method of R. Vinegar, J. F. Truax, J. […] [Federation Proceedings 41, 2588-2595, 1982]. 0.2 ml of a 2.0% solution of λ-carrageenin (Viscarin 402) in saline was injected intrapleurally in anaesthetised rats (wt. approx. 175-200 g). […] Exudate volume was calculated from the dilution of the phenol red injected, determined spectrophotometrically (560 nm) and cellular content estimated with a DNA assay [[…]. and Wollenberger A. Anal. Biochem. 77, 464-470, 1977]. This test is used to indicate anti-inflammatory activity against carrageenin-induced pleurisy in the rat.

[2] = test system: development of arthritis in the rat adjuvant arthritis model; experiment: Rat Adjuvant Arthritis Model (Method A); format: in vivo; details: 25 mg/kg (i.p.)
Procedure: Rat Adjuvant Arthritis Model
The test is as described by Newbould, Brit. J. Pharmacol., 1963, 21, 127-136.
It is used to indicate anti-rheumatic activity as shown by inhibiting the development of arthritis in the rat adjuvant arthritis model. The compound of Example 1 is active at a concentration of 25 mg/kg (i.p.)

5-lipoxygenase enzyme = experiment: RBL-1 5-Lipoxygenase Screen (Method B), cell free; format: biochemical; details: 2 min
Procedure: RBL-1 5-Lipoxygenase Screen
5-Lipoxygenase enzyme was prepared as a 10,000 g supernatant from RBL-1 cells by the method of Jakschik [Jakschik, B. A., F. F. Sun, L. M. Lee, and M. M. Steinhoff, 1980, Biochem. Biophys. Res. Comm. 95, 103]. The 10,000 g supernatant was diluted with homogenization buffer to the equivalent of 1.5-2.5×10^7 cells. ml^-1 and made 2 mM with respect to CaCl2. Aliquots of 0.5 ml were then dispensed into tubes, and incubated at 29° C. with 5 μl ethanol or compound in ethanol at the desired concentration for 2 min. Then […] arachidonic acid was added in buffer to give final concentration of 6.3 μM and 0.2 μCi per incubation, and the reaction continued at 29° C. for 2 min. The reaction was terminated by adding 1 ml of acetone and cooling on ice, 0.5 ml of ice-cold saline and 10 μl of 2N formic acid were added, and the mixture was extracted with 2×2 ml of chloroform. The extract was stored under N2 at -20° C. until analysis by chromatography.
This test is used to show inhibition of the 5-lipoxygenase enzyme in a mammalian RBL-1 cell free 5-lipoxygenase assay.

Compound | % inhibition of SRS-A release compared to controls (SRS-A release) [%] | anti-inflammatory activity against carrageenin-induced pleurisy ([1]; 25 mg/kg (p.o.)) | further results
COc1cc(Cc2nc3c(C)ccc(O)c3[nH]2)cc(OC)c1OC.Cl [Example 25, 2-(3',4',5'-Trimethoxybenzyl)-4-hydroxy-7-methylbenzimidazole hydrochloride] | 59 | – | –
Cc1ccc(O)c2[nH]c(CCCCCC(=O)O)nc12 [Example 18, 6-(4-Hydroxy-7-methyl-benzimidazol-2-yl)-hexanoic acid hydrochloride hydrate (3:3:1)] | – | – | anti-inflammatory activity against carrageenin-induced pleurisy ([1]; 12 mg/kg (i.p)): active
Cc1ccc(O)c2[nH]c(Cc3ccccc3)nc12 [Example 1, 2-Benzyl-4-hydroxy-7-methylbenzimidazole] | – | – | anti-rheumatic activity: inhibition of the development of arthritis in the rat adjuvant arthritis model [2]: active; percentage inhibition (5-lipoxygenase; formation of 5-HETE and 5,12-diHETE) (5-lipoxygenase enzyme; 0.5 μM concentration, p<0.01): 36.0 percentage; percentage inhibition (5-lipoxygenase; formation of 5-HETE and 5,12-diHETE) (5-lipoxygenase enzyme; 5 μM concentration, p<0.001): 78.1 percentage
COc1ccc(Cc2nc3c(C)ccc(O)c3[nH]2)cc1OC.Cl [Example 26, 2-(3',4'-Dimethoxybenzyl)-4-hydroxy-7-methylbenzimidazole hydrochloride] | 55 | – | –
Cc1ccc(Cc2nc3c(C)ccc(O)c3[nH]2)cc1 [Example 10, 2-(4'-Methylbenzyl)-4-hydroxy-7-methylbenzimidazole] | – | active | –
COc1ccc(Cc2nc3c(C)ccc(O)c3[nH]2)cc1.Cl [Example 12, 2-(4'-Methoxybenzyl)-4-hydroxy-7-methylbenzimidazole hydrochloride] | 58 | active | –
